{"source": "patent US5523314A", "about": "“Compounds useful as hypoglycemic agents and for treating Alzheimer's disease” (priority 1994, dated 1996)", "key": {"Human liver cathepsin D": {"molecular_target": "T1, Human liver cathepsin D (Homo sapiens, UniProt P07339)", "T1 construct": "purchased Athens Research and Technology, Athens, Ga; host or cells: human liver", "T1 sequence (P07339 169-412 limits assumed)": "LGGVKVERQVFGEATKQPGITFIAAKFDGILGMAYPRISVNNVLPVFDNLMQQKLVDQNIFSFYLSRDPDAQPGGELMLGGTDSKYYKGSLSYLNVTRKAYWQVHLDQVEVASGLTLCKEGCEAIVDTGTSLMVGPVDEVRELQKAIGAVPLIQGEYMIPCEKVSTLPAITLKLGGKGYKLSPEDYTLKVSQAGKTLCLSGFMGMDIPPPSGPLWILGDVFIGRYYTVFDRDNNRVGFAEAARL", "T1 sequence (P07339 65-161 limits assumed)": "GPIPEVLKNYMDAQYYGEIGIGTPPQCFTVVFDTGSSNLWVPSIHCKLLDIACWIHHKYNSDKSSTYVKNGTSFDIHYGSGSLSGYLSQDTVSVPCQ", "assay": "Cathepsin D inhibition, fluorometric assay (Tables 5 and 6)", "format": "biochemical", "how_it_was_run": "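Human liver cathepsin D at 500 ng/mL in 200 mM NaOAc pH 4.5, 150 mM NaCl, incubated 30 minutes at 37° C. Reaction stopped with microsomal leucine aminopeptidase (pH 8.0), which over two hours at 37° C releases AMC from cleavage products for fluorometric reading; aminopeptidase inhibition checked with Leu-pNA.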"}, "[1]": {"test_system": "plasma glucose concentration", "assay": "Long-term hypoglycemic activity, compound in diet, A^vy /a mice (Table 4)", "format": "in vivo, viable yellow mouse", "settings": "0.1% in diet, Male A^vy /a (Harlan)", "experimental": "(§1) Finally, the long-term hypoglycemic activity of the compounds of the present invention was tested in yet another in vivo test system. This long-term test system entailed incorporating test compound into the test animal's diet at various concentrations (control animal's diet contained no test compound). Such diet was then fed to the test or control animals for either 14 or 21 days. Each test or control animal was then bled from the tail (200-400 μl sample of blood) at 0 (before diet started), 7, 14 and, if appropriate, 21 and 28 days after diet administration was started. Plasma samples were then obtained from each blood sample collected and the glucose concentration of such plasma samples was determined enzymatically.\n(§2) Columns 4-8 provide the plasma glucose concentration at days 0, 7, 14 and, if appropriate, 21 and 28, respectively, for the animals tested. Glucose lowering was not associated with depressed diet consumption."}, "blood glucose level [2]": {"test_system": "blood glucose level", "assay": "Hypoglycemic activity in obese diabetic mice (Table 1)", "format": "in vivo, male viable yellow obese-diabetic mice", "settings": "for response vs control in vivo at 25 mg/kg / response vs control in vivo at 50 mg/kg: Mus musculus, ip, intraperitoneal", "how_it_was_run": "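Male viable yellow obese-diabetic mice, six per group, dosed intraperitoneally once with compound in saline containing 2% Emulphor. Blood glucose measured by glucose oxidase before dosing and at 2 and 4 h. Values are the 2 h and 4 h glucose as % of pre-dose level.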"}, "blood glucose level [3]": {"test_system": "blood glucose level", "assay": "Hypoglycemic activity in normal fed rats (Table 2)", "format": "in vivo, male Sprague Dawley rats", "settings": "Rattus norvegicus, 167 mg/kg, oral", "how_it_was_run": "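Test formulations given by oral gavage to four normal fed rats at the chosen dose. Blood glucose measured just before dosing and at 3 and 5 h by glucose oxidase/peroxidase enzymatic method with chromogenic oxygen acceptor. Means of the 4 values taken at each time.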"}, "blood glucose level [4]": {"test_system": "blood glucose level", "assay": "Hypoglycemic activity in obese diabetic Zucker rats (Table 3)", "format": "in vivo, obese diabetic Zucker rat (Zucker Diabetic Fatty Rat)", "settings": "167 mg/kg, oral", "experimental": "Male Sprague Dawley rats (Charles River Laboratories) weighing 175-200 g were used in this test system. […] The desired dose level of each test formulation was administered to four rats by oral […] at the beginning of the experiment. Blood glucose levels were determined immediately before the first dose and at 3 and 5 hours thereafter by an enzymatic procedure employing glucose oxidase and peroxidase coupled with a chromogenic oxygen acceptor. A mean was taken of the 4 values obtained before the first dose and at the 3 and 5 hour intervals.\nThe procedure used in this test system is the same as that described for the normal fed rat test system, above. The format of Table 3 is the same as that used in Table 2."}, "[5]": {"test_system": "plasma glucose concentration", "assay": "Long-term hypoglycemic activity, compound in diet, ZDF rats (Table 4)", "format": "in vivo, 8 week old male Zucker Diabetic Fatty rat", "experimental": "as §1, §2"}, "[6]": {"settings": "2 h, 2 hrs, read-out: Percent of Initial Blood Glucose Level After 2 hrs."}, "[7]": {"settings": "4 h, 4 hrs, read-out: Percent of Initial Blood Glucose Level After 4 hrs."}}, "note": "Like-named read-outs stand apart in the source and are kept apart here.", "data": [{"smiles": "CCCCCOc1ccc(C=C2SC(=S)NC2=O)cc1OC", "note": "[Example 45, 5-[(3-methoxy-4-pentoxyphenyl)methylene]-2-thioxo-4-thiazolidinone]", "values": [{"measurement": "inhibition at 4.15 µg/mL (stock)", "setting": "Human liver cathepsin D; Compound Stock Concentration 4.15 μg/ml", "result": 49.5, "unit": "%"}, {"measurement": "inhibition at 8.3 µg/mL (stock)", "setting": "Human liver cathepsin D; Compound Stock Concentration 8.3 μg/ml", "result": 95, "unit": "%"}, {"measurement": "Plasma Glucose Concentration", "setting": "[1]; day 0 (before diet started)", "result": 438, "unit": "mg/dL"}, {"measurement": "Plasma Glucose Concentration", "setting": "[1]; day 7", "result": 338, "unit": "mg/dL"}, {"measurement": "Plasma Glucose Concentration", "setting": "[1]; day 14", "result": 315, "unit": "mg/dL"}, {"measurement": "Plasma Glucose Concentration", "setting": "[1]; day 21", "result": 287, "unit": "mg/dL"}, {"measurement": "Plasma Glucose Concentration", "setting": "[1]; day 28", "result": 295, "unit": "mg/dL"}, {"measurement": "response vs control in vivo at 25 mg/kg", "setting": "blood glucose level [2]; [6]", "result": "93 ± 4", "unit": "%"}, {"measurement": "response vs control in vivo at 50 mg/kg", "setting": "blood glucose level [2]; [6]", "result": "76 ± 7", "unit": "%"}, {"measurement": "response vs control in vivo at 25 mg/kg", "setting": "blood glucose level [2]; [7]", "result": "87 ± 5", "unit": "%"}, {"measurement": "response vs control in vivo at 50 mg/kg", "setting": "blood glucose level [2]; [7]", "result": "57 ± 3", "unit": "%"}, {"measurement": "ability to lower blood glucose levels in mammals", "setting": "blood glucose level [2]; compared to structurally similar compounds known in the art, in words", "result": "surprising ability to lower blood glucose levels in mammals"}, {"measurement": "response vs control in vivo at 167 mg/kg", "setting": "blood glucose level [3]; 3 hrs, read-out: Percent of Initial Blood Glucose Level After 3 hrs.", "result": 61, "unit": "%"}, {"measurement": "response vs control in vivo at 167 mg/kg", "setting": "blood glucose level [3]; 5 hrs, read-out: Percent of Initial Blood Glucose Level After 5 hrs.", "result": 63, "unit": "%"}, {"measurement": "Percent of Initial Blood Glucose Level After 3 hrs.", "setting": "blood glucose level [4]; 3 hrs", "result": 30, "unit": "%"}, {"measurement": "Percent of Initial Blood Glucose Level After 5 hrs.", "setting": "blood glucose level [4]; 5 hrs", "result": 20, "unit": "%"}, {"measurement": "Plasma Glucose Concentration", "setting": "[5]; 0.025% in diet, day 0 (before diet started)", "result": 467, "unit": "mg/dL"}, {"measurement": "Plasma Glucose Concentration", "setting": "[5]; 0.025% in diet, day 7", "result": 451, "unit": "mg/dL"}, {"measurement": "Plasma Glucose Concentration", "setting": "[5]; 0.025% in diet, day 14", "result": 452, "unit": "mg/dL"}, {"measurement": "Plasma Glucose Concentration", "setting": "[5]; 0.025% in diet, day 21", "result": 517, "unit": "mg/dL"}, {"measurement": "Plasma Glucose Concentration", "setting": "[5]; 0.1% in diet, day 21", "result": 285, "unit": "mg/dL"}]}]}
